Marks after values point to notes of the source that are not given here.
What was measured:
[1] = test system: U251 MG tumor bearing mice; assay: Biodistribution; type: in vivo, mouse; settings: C-2f, i.v., 120 min post injection, unblocked
Procedure: Biodistribution studies were conducted on female nude mice (8-10 weeks old and 20-25 g in weight, n=21) bearing U251 MG subcutaneous xenografts. The radiolabeled preparation (20-30 μCi of compound C-2d (^131I) in 200 μL of a solution 90% PBS 10% PEG300) was administrated via the lateral tail vein. The compound was allowed to circulate for 2 h post injection at which time mice were sacrificed and organs were harvested (n=3). The radioactive content in tissue of interest (blood, tumor, muscle, bone, liver, spleen, kidney, heart, lung, pancreas, brain, skin, small intestine, large intestine, stomach, tail, thyroid and feces) was measured on a Wizard 2470 Automatic Gamma Counter, and the tissue-associated activity was calculated as the mean % ID/g using the following formula: [(activity in the target organ/grams of tissue)/injected dose]×100%.
Biodistribution studies were performed in subcutaneous U251 MG xenograft bearing athymic nude mice (n=12). Mice were divided in two groups (blocked and unblocked) and administered with C-2f (approximately 50 μCi, 45 mCi/μmol in […], 10% EtOH in 0.9% sterile saline) via tail vein injection. […] Mice were sacrificed by CO2 asphyxiation at 120 min post injection and major organs were collected, weighed, and counted in a WIZARD^2 automatic γ-counter (PerkinElmer, Boston, Mass.). The radiopharmaceutical uptake was expressed as a percentage of injected dose per gram (% ID/g) using the following formula: [(activity in the target organ/grams of tissue)/injected dose]×100%.

Blood half-life = type: in vivo, mouse; settings: athymic nude mice, tail vein injection
Procedure: The blood half-life was determined by measuring the activity in serial blood samplings. […] Measurements in counts per minute were calculated as the mean % ID/g. The blood half-life was calculated using Prism 6.0c (GraphPad Software, La Jolla, Calif.).
The blood half-life was calculated by measuring the activity of blood samples collected at different time points p.i. […] The collected blood was weighed and counted in a WIZARD^2 automatic γ-counter (PerkinElmer, Boston, Mass.). The blood half-life was calculated using Prism 6.0c (GraphPad Software, La Jolla, Calif.) using a two-phase decay least squares fitting method and expressed as % ID/g.

[2] = Stability in whole blood (in vitro); type: in vitro ADME; settings: whole human blood, 37° C., 15 to 240 minutes
Procedure: C-2f was then extracted with 750 μL of MeCN, then centrifuged (5 minutes at 5000 rpm) to pellet blood cells and proteins. The supernatant was collected and prepared for HPLC injection by adding 750 μL mQ H2O and filtering. The blood stability was measured by HPLC analysis (Method A).

[3] = test system: orthotopic U251 MG tumor bearing mice; assay: Autoradiography using C-2f; type: in vivo, mouse
Procedure: One day after PET/CT imaging, the same orthotopic U251 MG tumor bearing mice of Example 4.1.3 were administered with C-2f (80 μCi, 45 mCi/μmol in 300 μL 10% EtOH in 0.9% sterile saline) via tail vein injection. […] The mice were sacrificed after 2 hours and brain and muscle tissues harvested. The collected organs were fixed in Tissue-Tek O.C.T. compound (Sakura Finetek, Torrance, Calif.) and flash-frozen in liquid nitrogen and cut into 20 μm sections using a Vibratome Ultra Pro 5000 Cryostat (Vibratome, St. Louis, Mo.). A storage phosphor autoradiography plate (Fujifilm, BAS-MS2325, Fuji Photo Film, Japan) was exposed to the tissue slices overnight at −20° C. and read the following day (images not shown). Relative count intensity of the sections in each image was quantified using ImageJ 1.47 u processing software (see FIGS. 6A and 6B). Tumor/muscle and brain/muscle ratios were calculated using Prism 6.0c (GraphPad Software, La Jolla, Calif.). The same sections were subsequently subjected to H&E staining (hematoxylin-eosin) for morphological evaluation of tissue pathology and to compare the localization of the radiotracer with the location of tumor tissue (images not shown).

[4] = test system: mice bearing orthotopic U251 MG; assay: PET/CT imaging using C-2f; type: in vivo, mouse
Procedure: Mice bearing orthotopic U251 MG (n=8) were divided in two groups (unblocked and blocked) and administered with C-2f (150 μCi, 45 mCi/μmol in 300 μL 10% EtOH in 0.9% sterile saline) via tail vein injection. […] Approximately 5 min prior to PET acquisition, mice were anesthetized by inhalation of a mixture of isoflurane (Baxter Healthcare, Deerfield, Ill., USA; 2% isoflurane, 2 L/min medical air) and positioned on the scanner bed. Anesthesia was maintained using a 1% isoflurane/O2 mixture. PET data for each mouse was recorded using static scans of 10 minutes and acquired at 30 and 120 minutes post injection. Quantification (see FIG. 8) and % ID/g values were calculated by manually drawing regions of interests in three different frames and determining the average values using ASI Pro VM™ MicroPET Analysis software (Siemens Medical Solutions, Knoxville, Tex.).

[5] = half-life of PARP1i-FL (T. Reiner et al., unpublished); settings: in vivo
[6] = cited from earlier work
V79 cells = settings: DNA-incorporated; cited from earlier work

## O=C(c1ccc([18F])cc1)N1CCN(C(=O)c2cc(Cc3n[nH]c(=O)c4ccccc34)ccc2F)CC1 [C-2f (^18F)]
[1]
  % ID/g, Brain: 0.04±0.01 % ID/g
  % ID/g, Muscle: 0.37±0.09 % ID/g
  % ID/g, Tumor: 1.82±0.21 % ID/g
Blood half-life
  alpha blood half-life: 1.27 min
  beta blood half-life: 31.14 min
  beta blood half-life, share of phase: 14.49%
Blood half-life; 50 μCi
  weighted blood half-life: 5.6 min
[2]
  in vitro blood stability: excellent stability
[2]; listed as C-2f
  in vitro blood stability: no radioactive metabolites were observed
[3]; C-2f only, 2 hours
  autoradiography, retention in orthotopic tumor: 46.66±14.94 AU
  autoradiography, retention in surrounding brain: 0.06±0.02 AU
[3]; healthy mice
  autoradiography, muscle tissue: 1.50±0.31 AU
[3]; orthotopic tumor
  reduction of C-2f by preinjection of olaparib: 99%
[3]; preinjection of olaparib
  autoradiography, retention in orthotopic tumor: 0.44±0.41 AU
  autoradiography, retention in surrounding brain: 0.03±0.01 AU
[3]; tumor-bearing mice
  autoradiography, muscle tissue: 1.36±0.21 AU
[4]; animals receiving only C-2f
  PET retained activity in tumor: 2.15±0.79 % ID/g
[4]; animals that received both olaparib and C-2f
  PET retained activity in tumor: 0.28±0.01 % ID/g
[4]; mouse, in vivo
  PET retained activity, C-2f only vs olaparib and C-2f: eight-fold higher

## Cc1cc(C)n2c1C=C1C=CC(CCC(=O)N3CCN(C(=O)c4cc(Cc5n[nH]c(=O)c6ccccc56)ccc4F)CC3)=[N+]1[B-]2(F)F [PARP1i-FL]
[5]
  tα1/2: 1.2 min
  tα1/2, share of phase: 73.2%
  tβ1/2: 88.2 min
  tβ1/2, share of phase: 26.8%
  weighted t1/2: 24.5 min^c
[6]
  plasma free fraction: 0.7%^b

## O=c1[nH]c(=O)n([C@H]2C[C@H](O)[C@@H](CO)O2)cc1I [^123I-IdUrd, 5-iodo-2′-deoxy uridine]
V79 cells
  RBE: ~7

## O=c1[nH]c(=O)n([C@H]2C[C@H](O)[C@@H](CO)O2)cc1I [^125I-IdUrd, 5-iodo-2′-deoxy uridine]
V79 cells
  RBE: about 8

Source: patent US10512700B2, “Radiohalide-labeled targeted diagnostics and therapeutics” (Memorial Sloan Kettering Cancer Center, priority 2014, dated 2019)
